Tests used:
[1] = target: T1, isolated nNOS from rat cerebella (Rattus norvegicus, UniProt P29476); experiment: Arginine assay according to the invention (HTS NOS assay, cation exchanger filter MTP)
[2] = target: T1, isolated nNOS from rat cerebella; experiment: Citrulline assay according to Bredt and Snyder (1990), separation by column chromatography; format: biochemical; settings: [3H]arginine 50 nM
Excerpt: On completion of the reaction the enzyme mixtures are passed over separate cation exchange columns. Elution of the [^3H]L-citrulline and determination of the eluates then takes place on a β-counter. The disadvantage of this method is that column chromatography has to take place separately for each enzyme mixture (e.g. 96 chromatography columns are needed per 96 well microtiter plate).
The precipitate is discarded.
The separation was effected by means of column chromatography.

Row | SMILES | inhibition at 10 µM ([1]; read-out: NOS inhibition) [%] | IC50 [2] [µM] | IC50 ([1]; read-out: IC50 value, Arginine assay according to the invention as in Example 4, [3H]arginine 50 nM, nNOS from rat cerebella, 96 well cation exchanger filter MTP) [µM] | IC50 [1] [µM]
1 | O=[N+]([O-])c1cccc2cn[nH]c12 [7-Nitroindazole, 7-nitroindazole] | ~50 |  |  | 
2 | FC(F)(F)c1ccccc1-n1ccnc1 [TRIM, 1-(2-trifluormethylphenyl)imidazole] |  | > 100 | > 100 | 
3 | C=CCC(=N)NCCC[C@H](N)C(=O)O [Vinyl L-NIO, N5-(1-imino-3-butenyl)-L-ornithine] |  | 5.57 |  | 5.02
